Assay results from US20250235460A1, “COMBINATION THERAPY USING GLUCOSE-DEPENDENT INSULINOTROPIC POLYPEPTIDE RECEPTOR ANTAGONIST COMPOUNDS AND GLP-1 RECEPTOR AGONIST COMPOUNDS” (Pfizer Inc., priority 2024, published 2025).

Molecular target: human GLP-1R (Homo sapiens, UniProt P43220, G168S)
Experiment: CHO GLP-1R Clone H6 cAMP HTRF agonist assay (Assay 1, high receptor density)
Format: cell-based
Conditions: for EC50: CHO GLP-1R clone H6, cAMP HTRF, geometric mean; for Emax: CHO GLP-1R clone H6, arithmetic mean, relative to saturating GLP-1 (1 μM), read-out: Assay 1 Emax (%)
Source text: In Table 5 and Table 6, assay data are presented to two (2) significant figures as the geometric mean (EC50s) and arithmetic mean (Emax) based on the number of replicates listed (Number). A blank cell means there was no data for that Example or the Emax was not calculated.

human GLP-1R, sequence (P43220 24-463 G168S): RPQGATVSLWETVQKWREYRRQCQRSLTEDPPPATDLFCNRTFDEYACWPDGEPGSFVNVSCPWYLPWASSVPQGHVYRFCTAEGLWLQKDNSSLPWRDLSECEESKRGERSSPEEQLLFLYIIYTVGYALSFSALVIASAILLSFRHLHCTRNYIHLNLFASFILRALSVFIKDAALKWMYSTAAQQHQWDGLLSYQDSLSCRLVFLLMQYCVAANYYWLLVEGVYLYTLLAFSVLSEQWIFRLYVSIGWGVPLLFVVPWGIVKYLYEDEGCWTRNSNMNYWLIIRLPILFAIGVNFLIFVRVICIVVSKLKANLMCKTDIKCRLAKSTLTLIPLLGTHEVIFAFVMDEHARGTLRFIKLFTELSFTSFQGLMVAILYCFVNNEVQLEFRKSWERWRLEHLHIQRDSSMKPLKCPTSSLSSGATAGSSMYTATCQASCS

| EC50 [nM] | Emax [%] | Compound |
| --- | --- | --- |
| 600 | 70 | O=C(O)c1ccc2nc(CN3CCC(c4cccc(OCc5ccc(Cl)cc5F)n4)CC3)n(CCC3CCOCC3)c2c1 [Compound 340B, 2-[(4-{6-[(4-chloro-2-fluorobenzyl)oxy]pyridin-2-yl}piperidin-1-yl)methyl]-1-[2-(tetrahydro-2H-pyran-4-yl)ethyl]-1H-benzimidazole-6-carboxylic acid] |
| > 20000 |  | O=C(O)c1ccc2nc(CN3CCC(c4cccc(OCc5ccc(Cl)cc5F)n4)CC3)n(C[C@H]3CCOC3)c2c1 [Compound 121B, 2-[(4-{6-[(4-chloro-2-fluorobenzyl)oxy]pyridin-2-yl}piperidin-1-yl)methyl]-1-[(3R)-tetrahydrofuran-3-ylmethyl]-1H-benzimidazole-6-carboxylic acid] |
| 2400 | 87 | COCCn1c(CN2CCC(c3cccc(OCc4ccc(Cl)cc4F)n3)CC2)nc2ccc(C(=O)O)cc21 [Compound 176B, 2-[(4-{6-[(4-chloro-2-fluorobenzyl)oxy]pyridin-2-yl}piperidin-1-yl)methyl]-1-(2-methoxyethyl)-1H-benzimidazole-6-carboxylic acid] |
| 210 | 77 | Cn1cc(CCn2c(CN3CCC(c4cccc(OCc5ccc(Cl)cc5F)n4)CC3)nc3ccc(C(=O)O)cc32)cn1 [Compound 307B, 2-[(4-{6-[(4-chloro-2-fluorobenzyl)oxy]pyridin-2-yl}piperidin-1-yl)methyl]-1-[2-(1-methyl-1H-pyrazol-4-yl)ethyl]-1H-benzimidazole-6-carboxylic acid] |
| 4500 | 48 | COCCn1c(CN2CCC(c3ccc(F)c(OCc4ccc(Cl)cc4F)n3)CC2)nc2ccc(C(=O)O)cc21 [Compound 178B, 2-[(4-{6-[(4-chloro-2-fluorobenzyl)oxy]-5-fluoropyridin-2-yl}piperidin-1-yl)methyl]-1-(2-methoxyethyl)-1H-benzimidazole-6-carboxylic acid] |
| 250 | 64 | Cc1n[nH]c(CCn2c(CN3CCC(c4cccc(OCc5ccc(Cl)cc5F)n4)CC3)nc3ccc(C(=O)O)cc32)n1 [Compound 341B, 2-[(4-{6-[(4-chloro-2-fluorobenzyl)oxy]pyridin-2-yl}piperidin-1-yl)methyl]-1-[2-(3-methyl-1H-1,2,4-triazol-5-yl)ethyl]-1H-benzimidazole-6-carboxylic acid] |
| 4000 | 91 | CCN1CCC[C@@H]1Cn1c(CN2CCC(c3cccc(OCc4ccc(Cl)cc4F)n3)CC2)nc2ccc(C(=O)O)cc21 [Compound 329B, 2-[(4-{6-[(4-chloro-2-fluorobenzyl)oxy]pyridin-2-yl}piperidin-1-yl)methyl]-1-{[(2R)-1-ethylpyrrolidin-2-yl]methyl}-1H-benzimidazole-6-carboxylic acid] |
| > 20000 |  | O=C(O)c1ccc2nc(CN3CCC(c4cccc(OCc5ccc(Cl)cc5F)n4)CC3)n(Cc3ncon3)c2c1 [Compound 271B, 2-[(4-{6-[(4-chloro-2-fluorobenzyl)oxy]pyridin-2-yl}piperidin-1-yl)methyl]-1-(1,2,4-oxadiazol-3-ylmethyl)-1H-benzimidazole-6-carboxylic acid] |
| 380 | 75 | COCCCn1c(CN2CCC(c3cccc(OCc4ccc(Cl)cc4F)n3)CC2)nc2ccc(C(=O)O)cc21 [Compound 313B, 2-[(4-{6-[(4-chloro-2-fluorobenzyl)oxy]pyridin-2-yl}piperidin-1-yl)methyl]-1-(3-methoxypropyl)-1H-benzimidazole-6-carboxylic acid] |

Further lines, the compound ahead of its results:

| Compound | EC50 [nM] | Emax [%] |
| --- | --- | --- |
| Cc1nc(Cn2c(CN3CCC(c4cccc(OCc5ccc(Cl)cc5F)n4)CC3)nc3ccc(C(=O)O)cc32)c(C)o1 [Compound 330B, 2-[(4-{6-[(4-chloro-2-fluorobenzyl)oxy]pyridin-2-yl}piperidin-1-yl)methyl]-1-[(2,5-dimethyl-1,3-oxazol-4-yl)methyl]-1H-benzimidazole-6-carboxylic acid] | 9300 | 100 |
| C[C@H]1CN(c2cccc(OCc3ccc(Cl)cc3F)n2)CCN1Cc1nc2ccc(C(=O)O)cc2n1Cc1ncco1 [Compound 148B, 2-{[(2S)-4-{6-[(4-chloro-2-fluorobenzyl)oxy]pyridin-2-yl}-2-methylpiperazin-1-yl]methyl}-1-(1,3-oxazol-2-ylmethyl)-1H-benzimidazole-6-carboxylic acid] | 340 | 74 |
| COCCn1c(CN2CCN(c3cccc(OCc4ccc(C#N)cc4)n3)C[C@@H]2C)nc2ccc(C(=O)O)cc21 [Compound 172B, 2-{[(2S)-4-{6-[(4-cyanobenzyl)oxy]pyridin-2-yl}-2-methylpiperazin-1-yl]methyl}-1-(2-methoxyethyl)-1H-benzimidazole-6-carboxylic acid] | 2900 |  |
| O=C(O)c1ccc2nc(CN3CCC(c4cccc(OCc5ccc(F)cc5F)n4)CC3)n(C[C@@H]3CCO3)c2n1 [Compound 118B, 2-[(4-{6-[(2,4-difluorobenzyl)oxy]pyridin-2-yl}piperidin-1-yl)methyl]-3-[(2S)-oxetan-2-ylmethyl]-3H-imidazo[4,5-b] pyridine-5-carboxylic acid] | 750 | 76 |
| CCn1cncc1Cn1c(CN2CCN(c3cccc(OCc4ccc(C#N)cc4F)n3)CC2)nc2ccc(C(=O)O)cc21 [Compound 152B, 2-[(4-{6-[(4-cyano-2-fluorobenzyl)oxy]pyridin-2-yl}piperazin-1-yl)methyl]-1-[(1-ethyl-1H-imidazol-5-yl)methyl]-1H-benzimidazole-6-carboxylic acid] | 370 | 75 |
| CO[C@@H]1CCC[C@H]1n1c(CN2CCC(c3cccc(OCc4ccc(Cl)cc4F)n3)CC2)nc2ccc(C(=O)O)cc21 (stereo in doubt) [Compound 194B, 2-[(4-{6-[(4-chloro-2-fluorobenzyl)oxy]pyridin-2-yl}piperidin-1-yl)methyl]-1-[(1R,2R)-2-methoxycyclopentyl]-1H-benzimidazole-6-carboxylic acid] | 75 | 69 |
| Cn1c(CN2CCC(c3cccc(OCc4ccc(F)cc4F)n3)CC2)nc2ccc(C(=O)O)cc21 [Compound 223B, 2-[(4-{6-[(2,4-difluorobenzyl)oxy]pyridin-2-yl}piperidin-1-yl)methyl]-1-methyl-1H-benzimidazole-6-carboxylic acid] | 170 | 69 |
| COCCn1c(CN2CCN(c3cccc(OCc4ccc(C#N)cc4)n3)CC2)nc2ccc(C(=O)O)cc21 [Compound 171B, 2-[(4-{6-[(4-cyanobenzyl)oxy]pyridin-2-yl}piperazin-1-yl)methyl]-1-(2-methoxyethyl)-1H-benzimidazole-6-carboxylic acid] | 200 | 79 |
| CCc1noc(Cn2c(CN3CCC(c4cccc(OCc5ccc(Cl)cc5F)n4)CC3)nc3ccc(C(=O)O)cc32)n1 [Compound 264B, 2-[(4-{6-[(4-chloro-2-fluorobenzyl)oxy]pyridin-2-yl}piperidin-1-yl)methyl]-1-[(3-ethyl-1,2,4-oxadiazol-5-yl)methyl]-1H-benzimidazole-6-carboxylic acid] | > 10000 | 85 |
| Cc1ccccc1COc1cccc(C2CCN(Cc3nc4ccc(C(=O)O)cc4n3C)CC2)n1 [Compound 230B, 1-methyl-2-[(4-{6-[(2-methylbenzyl)oxy]pyridin-2-yl}piperidin-1-yl)methyl]-1H-benzimidazole-6-carboxylic acid] | 1700 | 80 |
